For orientation: MIC means the lowest concentration found to suppress growth.

For eight compounds, MIC results are on record in ChEMBL document CHEMBL5360532, “Current scenario of quinolone hybrids with potential antibacterial activity against ESKAPE pathogens” (Eur J Med Chem, 2023).

≈ marks a conversion by molar mass, not a printed value.

Type in all cases: functional
Test [1] concerns Pseudomonas aeruginosa. As to the kind of experiment: Antibacterial activity against Pseudomonas aeruginosa assessed as bacterial growth inhibition measured after 18 to 24 hrs by two fold serial dilution assay. Particulars: time 18-24 hrs.
For test [2], the system named is Escherichia coli. The experiment in a line: Antibacterial activity against Escherichia coli ATCC35218 assessed as bacterial growth inhibition measured after 18 to 24 hrs inhibition by broth microdilution assay. Particulars: time 18-24 hrs. (In broth dilution the organism is exposed to a series of concentrations in liquid medium.)
Test [3] relates to Escherichia coli. As to the kind of experiment: Antibacterial activity against Escherichia coli assessed as bacterial growth inhibition measured after 18 to 24 hrs by two fold serial dilution assay. Particulars: time 18-24 hrs.
Test [4] relates to Klebsiella pneumoniae. As to the kind of experiment: Antibacterial activity against Klebsiella pneumoniae assessed as bacterial growth inhibition measured after 18 to 24 hrs by two fold serial dilution assay. Particulars: time 18-24 hrs.
The subject of test [5] is Staphylococcus aureus. The experiment in a line: Antibacterial activity against methicillin sensitive Staphylococcus aureus assessed as bacterial growth inhibition measured after 18 to 24 hrs by two fold serial dilution assay. The note with it: time 18-24 hrs.
Test [6] concerns Pseudomonas aeruginosa. As to the kind of experiment: Antibacterial activity against Pseudomonas aeruginosa assessed as bacterial growth inhibition by broth microdilution assay.
Test [7] deals with Staphylococcus aureus. The experiment in a line: Antibacterial activity against Staphylococcus aureus ATCC 29213 assessed as bacterial growth inhibition by broth microdilution assay.
Test [8] deals with Staphylococcus aureus. As to the kind of experiment: Antibacterial activity against clinical isolate erythromycin/methicillin resistant Staphylococcus aureus NRS 70 assessed as bacterial growth inhibition measured after 16 to 18 hrs by serial dilution method. The note with it: time 16-18 hrs.
Test [9] deals with Staphylococcus aureus. The experiment in a line: Antibacterial activity against vancomycin-intermediate methicillin resistant Staphylococcus aureus ATCC 700699 assessed as bacterial growth inhibition measured after 16 to 18 hrs by serial dilution method. The note with it: time 16-18 hrs.
In test [10] the test system is Staphylococcus aureus. The experiment in a line: Antibacterial activity against fluoroquinolone/methicillin resistant Staphylococcus aureus clinical isolate 19-25 assessed as bacterial growth inhibition measured after 16 to 18 hrs by serial dilution method. The note with it: time 16-18 hrs.
Test [11] concerns Staphylococcus aureus. As to the kind of experiment: Antibacterial activity against fluoroquinolone/methicillin resistant Staphylococcus aureus clinical isolate 19-27 assessed as bacterial growth inhibition measured after 16 to 18 hrs by serial dilution method. Particulars: time 16-18 hrs.
The subject of test [12] is Staphylococcus aureus. The experiment in a line: Antibacterial activity against clinical isolate oxacillin/tetracycline/methicillin resistant Staphylococcus aureus NRS 100 assessed as bacterial growth inhibition measured after 16 to 18 hrs by serial dilution method. The note with it: time 16-18 hrs.
Test [13] has as its system Staphylococcus aureus. The experiment in a line: Antibacterial activity against Staphylococcus aureus Newman assessed as bacterial growth inhibition measured after 16 to 18 hrs by serial dilution method. Particulars: time 16-18 hrs.
Test [14] has as its system Staphylococcus aureus. As to the kind of experiment: Antibacterial activity against clinical isolate aminoglycosides/tetracycline/methicillin resistant Staphylococcus aureus NRS 1 assessed as bacterial growth inhibition measured after 16 to 18 hrs by serial dilution method. Particulars: time 16-18 hrs.
Test [15] has as its system Staphylococcus aureus. As to the kind of experiment: Antibacterial activity against fluoroquinolone/methicillin resistant Staphylococcus aureus clinical isolate 19-26 assessed as bacterial growth inhibition measured after 16 to 18 hrs by serial dilution method. Particulars: time 16-18 hrs.
The test system of test [16] is Staphylococcus aureus. The experiment in a line: Antibacterial activity against clinical isolate linezolid/methicillin resistant Staphylococcus aureus NRS 271 assessed as bacterial growth inhibition measured after 16 to 18 hrs by serial dilution method. Particulars: time 16-18 hrs.
For test [17], the system named is Staphylococcus aureus. The experiment in a line: Antibacterial activity against methicillin resistant Staphylococcus aureus ATCC 33591 assessed as bacterial growth inhibition measured after 16 to 18 hrs by serial dilution method. Particulars: time 16-18 hrs.
The subject of test [18] is Staphylococcus aureus. The experiment in a line: Antibacterial activity against methicillin resistant Staphylococcus aureus ATCC 43300 assessed as bacterial growth inhibition measured after 16 to 18 hrs by serial dilution method. Particulars: time 16-18 hrs.
Test [19] deals with Staphylococcus aureus. As to the kind of experiment: Antibacterial activity against clinical isolate gentamycin/methicillin resistant Staphylococcus aureus NRS 108 assessed as bacterial growth inhibition measured after 16 to 18 hrs by serial dilution method. Particulars: time 16-18 hrs.
In test [20] the test system is Escherichia coli. The experiment in a line: Antibacterial activity against Escherichia coli assessed as bacterial growth inhibition measured after 20 hrs by serial dilution method.
Test [21] concerns Pseudomonas aeruginosa. As to the kind of experiment: Antibacterial activity against Pseudomonas aeruginosa assessed as bacterial growth inhibition measured after 20 hrs by serial dilution method.
The test system of test [22] is Staphylococcus aureus. As to the kind of experiment: Antibacterial activity against Staphylococcus aureus assessed as bacterial growth inhibition measured after 20 hrs by serial dilution method.
Test [23] relates to Klebsiella pneumoniae. As to the kind of experiment: Antibacterial activity against Klebsiella pneumoniae assessed as bacterial growth inhibition measured after 20 hrs by serial dilution method.
The test system of test [24] is Staphylococcus aureus. As to the kind of experiment: Antibacterial activity against Staphylococcus aureus ATCC 6538p assessed as bacterial growth inhibition by agar dilution method. For orientation: Agar dilution tests growth on a series of plates holding different concentrations.
For test [25], the system named is Enterobacter cloacae. The experiment in a line: Antibacterial activity against Enterobacter cloacae PTCC 1003 assessed as bacterial growth inhibition by agar dilution method.
Test [26] deals with Staphylococcus epidermidis. The experiment in a line: Antibacterial activity against Staphylococcus epidermidis ATCC 12228 assessed as bacterial growth inhibition by agar dilution method.
The test system of test [27] is Escherichia coli. As to the kind of experiment: Antibacterial activity against Escherichia coli ATCC 8739 assessed as bacterial growth inhibition by agar dilution method.
Test [28] deals with Klebsiella pneumoniae. As to the kind of experiment: Antibacterial activity against Klebsiella pneumoniae ATCC 10031 assessed as bacterial growth inhibition by agar dilution method.
Test [29] concerns Bacillus subtilis. As to the kind of experiment: Antibacterial activity against Bacillus subtilis PTCC 1023 assessed as bacterial growth inhibition by agar dilution method.
The subject of test [30] is Escherichia coli. As to the kind of experiment: Antibacterial activity against Escherichia coli assessed as bacterial growth inhibition measured after 24 hrs by agar cup diffusion assay.
The test system of test [31] is Pseudomonas aeruginosa. As to the kind of experiment: Antibacterial activity against Pseudomonas aeruginosa assessed as bacterial growth inhibition measured after 24 hrs by agar cup diffusion assay.
For test [32], the system named is Staphylococcus aureus. As to the kind of experiment: Antibacterial activity against Staphylococcus aureus assessed as bacterial growth inhibition measured after 24 hrs by agar cup diffusion assay.
Test [33] deals with Candida albicans. The experiment in a line: Antifungal activity against Candida albicans assessed as fungal growth inhibition measured after 24 hrs by agar cup diffusion assay.
For test [34], the system named is Alternaria. The experiment in a line: Antifungal activity against Alternaria assessed as fungal growth inhibition measured after 7 days by agar disc diffusion assay. The note with it: 168 h, time 7 day. Background: A growth-free zone around the sample is the usual read-out of agar diffusion tests.
In test [35] the test system is Escherichia coli. The experiment in a line: Antibacterial activity against Escherichia coli ATCC 25922 assessed as bacterial growth inhibition by agar disc diffusion assay.
Test [36] relates to Staphylococcus aureus. As to the kind of experiment: Antibacterial activity against Staphylococcus aureus ATCC 25923 assessed as bacterial growth inhibition by agar disc diffusion assay.
For test [37], the system named is Staphylococcus aureus. As to the kind of experiment: Antibacterial activity against Staphylococcus aureus clinical isolate 1 assessed as bacterial growth inhibition by agar disc diffusion assay.
In test [38] the test system is Pseudomonas aeruginosa. As to the kind of experiment: Antibacterial activity against Pseudomonas aeruginosa clinical isolate 1 assessed as bacterial growth inhibition by agar disc diffusion assay.
The subject of test [39] is Fusarium oxysporum f. sp. lycopersici. The experiment in a line: Antifungal activity against Fusarium oxysporum f. sp. lycopersici assessed as fungal growth inhibition measured after 7 days by agar disc diffusion assay. Particulars: 168 h, time 7 day.
Test [40] has as its system Escherichia coli. As to the kind of experiment: Antibacterial activity against Escherichia coli clinical isolate 1 assessed as bacterial growth inhibition by agar disc diffusion assay.
Test [41] deals with Pseudomonas aeruginosa. As to the kind of experiment: Antibacterial activity against Pseudomonas aeruginosa ATCC 27853 assessed as bacterial growth inhibition by agar disc diffusion assay.

Turning to `COc1c(N2C[C@H]3CCCN(C(=O)Cn4cc(CN5C(=O)C(=O)c6ccccc65)nn4)[C@H]3C2)c(F)cc2c(=O)c(C(=O)O)cn(C3CC3)c12`, the minimum inhibitory concentration (MIC) in test [1], in test [2], in test [3], in test [4], in test [5] and in test [6] was no more than 0.03 µg/mL each time.
For the compound `O=C1C(=O)N(Cc2cn(CC(=O)N3CCN(c4cc5c(cc4F)c(=O)c(C(=O)O)cn5C4CC4)CC3)nn2)c2ccc(F)cc21`, the MIC in [1], in test [2], in test [3], in test [4], in test [5] and in test [6] was no more than 0.03 µg/mL each time.
In the case of `COc1ccc2nc(CN3CCN(c4cc5c(cc4F)c(=O)c(C(=O)O)cn5C4CC4)CC3)[nH]c(=O)c2c1`, the MIC in [7] was found to be 0.031 µg/mL (≈ 0.0597 µM).
As to `Cc1ccc(Oc2ccnc(Nc3ccc4c(=O)c(C(=O)O)cn(C5CC5)c4c3)n2)cc1`, the MIC in [8], in [9], in test [10], in [11], in test [12] and in test [13] was no more than 0.17 µg/mL each time. Besides, the minimum inhibitory concentration (MIC) in [14], in test [15], in [16], in test [17], in test [18] and in [19] was no more than 0.17 µg/mL in each case.
As for `Cc1cccc2cc(/C=C3\NC(=S)NC3=O)c(=O)[nH]c12`, the MIC in [20], in test [21], in test [22] and in [23] was 0.24 µg/mL (≈ 0.841 µM) in each case.
Turning to `CCOC(=O)C(C(=O)OCC)C(=O)c1cn(C2CC2)c2cc(N3CCN(/N=N/c4nc(OC)cc(OC)n4)CC3)c(F)cc2c1=O`, the MIC in test [24], in test [25], in test [26], in [27], in test [28] and in [29] was 0.015 µg/mL (≈ 0.0235 µM) throughout.
For `O=C(/C=C/c1ccc(F)cc1)c1ccc(NC(=O)N2CCN(c3cc4c(cc3F)c(=O)c(C(=O)O)cn4C3CC3)CC2)cc1`, the minimal inhibitory concentration (MIC) in [30] is 0.53 µg/mL (≈ 0.885 µM); in [31] it was 0.53 µg/mL (≈ 0.885 µM); in test [32], 0.53 µg/mL (≈ 0.885 µM); in test [33], 2.03 µg/mL (≈ 3.39 µM).
For `CCOP(=O)(OCC)C(NS(=O)(=O)Nc1ccccc1OC)c1cc2cccc(C)c2[nH]c1=O` (configuration not stated), the minimal inhibitory concentration (MIC) in test [34], in test [35], in test [36], in [37], in [38] and in [39] was 0.125 µg/mL (≈ 0.245 µM) throughout. Also, the minimal inhibitory concentration (MIC) in test [40] and in test [41] was 0.125 µg/mL (≈ 0.245 µM) in each case.
